Experimental data reported in patent US20180104240A1, “AMELIORATION OF RADIATION-INDUCED COGNITIVE DYSFUNCTION” (NEURALSTEM, INC., priority 2016, published 2018).

How the values were obtained:
Assay type in all cases: in vivo, rat
[1] = system: proliferating (BrdU+) cells present in the hippocampal dentate gyrus; assay: Neurogenesis: BrdU and BrdU/NeuN immunohistochemical labeling after head-only irradiation; settings: irradiated rats, 30 mg/kg oral, 30 days
Procedure: (§1) Ten (10) week old Long Evans (LE) rats (Crl:LE, Strain Code: 006; Charles River) were divided randomly into three groups (n=16/group):
(§2) Radiation recipients having administered drug (IRR+NSI-189) received the compound of formula (2) wherein R^1=amyl as the phosphate salt by oral gavage. Drug was administered at 30 mg/kg (amount based exclusive of phosphate) and 27 Gy head-only fractionated radiation administered as in the IRR group. Rats in this group were administered NSI-189 in sterile vehicle (normal saline) as a 1× solution (15 mg/ml) starting 24 hours after the final dose of radiation and daily thereafter for 30 days. Sterile gavage needles with protected tips were used and the drug administered for less than a minute.
For IRR and IRR+NSI-189, rats were anesthetized [2.5% (vol/vol) isoflurane/oxygen], placed ventrally on the treatment table (X-RAD 320 irradiator; Precision X-Ray) without restraint, and positioned under a collimated (1.0 cm^2 diameter) beam for head-only radiation delivered at a dose rate of 1.0 Gy/min. Fractionation of 27 Gy was delivered over 3 separate doses of […] that were administered 48 hours apart. […]
Remaining animals that were not used for Golgi-Cox staining (n=12/group) were given a barbiturate overdose and were perfused/fixated using 4% paraformaldehyde and tissue removed. Tissue was analyzed by immunohistochemistry.

[2] = system: Long Evans (LE) rats; assay: Novel Place Recognition (NPR) spontaneous exploration task after head-only irradiation
Text: as §1
(§3) Controls (Con) received oral gavage (vehicle only) and sham radiation.
(§4) Radiation recipients with no drug (IRR) administered oral gavage (vehicle only) and 27 Gy head-only fractionated radiation.
as §2, with “minute. […]” for “minute.”
(§5) Rats were subjected to cognitive testing using spontaneous exploration tasks outlined below 1 week after termination of oral gavage (5 weeks post irradiation) over the course of 3 weeks. […] All data were collected using Noldus Ethovision v8.5 and later hand scored by a technician blind to the treatment groups. […]

[3] = system: Long Evans (LE) rats; assay: Temporal Order (TO) spontaneous exploration task after head-only irradiation
Text: as §1, §3, §4
as §2, with “minute. […]” for “minute.”
as §5

[4] = system: Long Evans (LE) rats; assay: Object in Place (OiP) spontaneous exploration task after head-only irradiation
Text: as §1, §3, §4
as §2, with “minute. […]” for “minute.”
as §5

[5] = system: Long Evans (LE) rats; assay: Novel Object Recognition (NOR) spontaneous exploration task after head-only irradiation
Text: as §1, §3, §4
as §2, with “minute. […]” for “minute.”
as §5

[6] = IRR lower than IRR+NSI-189 (P<0.05), 30 mg/kg oral, 30 days, 27 Gy

Compound: CC(C)CCNc1ncccc1C(=O)N1CCN(Cc2ccccc2)CC1 [NSI-189]
- yield of BrdU+/NeuN+ cells (mature neurons) in the hippocampal dentate gyrus ([1]; dual immunohistochemical labeling): returned the yield of BrdU^+/NeuN^+ cells to pre-irradiation levels
- number of proliferating (BrdU+) cells in the hippocampal dentate gyrus ([1]; radiation alone gave significant (P<0.05) reduction): returned to pre-irradiation levels
- NPR exploration ratio of IRR+NSI-189 compared with Con (statistics, in words) [2, 6]: did not differ significantly from Con
- Exploration Ratio mean (NPR) ([2]; rats, 27 Gy head-only fractionated radiation, 30 mg/kg oral gavage daily for 30 days starting 24 hours after final radiation dose, tested 5 weeks post irradiation, 1 hour retention): mean = 60.69
- TO exploration ratio of IRR+NSI-189 compared with Con (statistics, in words) ([3]; 30 mg/kg oral, 30 days, 27 Gy): did not differ statistically
- Exploration Ratio mean (TO) ([3]; rats, 27 Gy head-only fractionated radiation, 30 mg/kg oral gavage daily for 30 days, object sets 3 hours apart, test after additional 1 hour): mean = 67.95
- OiP exploration ratio of IRR+NSI-189 compared with Con (statistics, in words) [4, 6]: showed no significant differences
- Exploration Ratio mean (OiP) ([4]; rats, 27 Gy head-only fractionated radiation, 30 mg/kg oral gavage daily for 30 days): mean = 64.60
- NOR exploration ratio of IRR+NSI-189 compared with Con (statistics, in words) ([5]; IRR lower than IRR+NSI-189 (P<0.01), 30 mg/kg oral, 30 days, 27 Gy): statistically indistinguishable
- Exploration Ratio mean (NOR) ([5]; rats, 27 Gy head-only fractionated radiation, 30 mg/kg oral gavage daily for 30 days, 5 min retention interval): mean = 71.28
